Measurements published in the supplement of paper PMC10307832.

Legend:
Experiment in all cases: relative viability (nuclei count vs DMSO), 5 days (fraction); higher = more cells survive
Vemurafenib + Trametinib = compound: CCCS(=O)(=O)Nc1ccc(F)c(C(=O)c2c[nH]c3ncc(-c4ccc(Cl)cc4)cc23)c1F [Vemurafenib] + CC(=O)Nc1cccc(-n2c(=O)n(C3CC3)c(=O)c3c(Nc4ccc(I)cc4F)n(C)c(=O)c(C)c32)c1 [Trametinib] (partner 0.02 µM)
Procedure, shortened: (§1)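 Relative viability divides the nuclei count in treated wells by that in vehicle wells. Lung cancer cell lines were seeded in 1536-well plates, dosed by pin tool the next day, and fixed and stained after 5 days in one step with final 0.05% Triton X-100, 1% formaldehyde and 1 ug/ml Hoechst. Dosing was a single drug or a fixed anchor-drug dose plus five library-drug doses (not always all listed) in √10 steps, and values are medians of duplicate plates imaged at 4×.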

Vemurafenib + Pictilisib = compound: CCCS(=O)(=O)Nc1ccc(F)c(C(=O)c2c[nH]c3ncc(-c4ccc(Cl)cc4)cc23)c1F [Vemurafenib] + CS(=O)(=O)N1CCN(Cc2cc3nc(-c4cccc5[nH]ncc45)nc(N4CCOCC4)c3s2)CC1 [Pictilisib] (partner 1 µM)
Procedure, shortened: as §1

Vemurafenib + OSI-027 = compound: CCCS(=O)(=O)Nc1ccc(F)c(C(=O)c2c[nH]c3ncc(-c4ccc(Cl)cc4)cc23)c1F [Vemurafenib] + COc1cccc2cc(-c3nc([C@H]4CC[C@H](C(=O)O)CC4)n4ncnc(N)c34)[nH]c12 [OSI-027] (partner 0.5 µM)
Procedure, shortened: as §1

Vemurafenib + Foretinib = compound: CCCS(=O)(=O)Nc1ccc(F)c(C(=O)c2c[nH]c3ncc(-c4ccc(Cl)cc4)cc23)c1F [Vemurafenib] + COc1cc2c(Oc3ccc(NC(=O)C4(C(=O)Nc5ccc(F)cc5)CC4)cc3F)ccnc2cc1OCCCN1CCOCC1 [Foretinib] (partner 0.25 µM)
Procedure, shortened: as §1

Vemurafenib + Vorinostat = compound: CCCS(=O)(=O)Nc1ccc(F)c(C(=O)c2c[nH]c3ncc(-c4ccc(Cl)cc4)cc23)c1F [Vemurafenib] + O=C(CCCCCCC(=O)Nc1ccccc1)NO [Vorinostat] (partner 1 µM)
Procedure, shortened: as §1

UMC-11 showed a relative viability (Vemurafenib + Trametinib; first compound 0.03162 µM) of 0.657, a relative viability (Vemurafenib + Trametinib; first compound 0.1 µM) of 0.756 and a relative viability (Vemurafenib + Trametinib; first compound 0.3162 µM) of 0.475. It also gave a relative viability (Vemurafenib + Trametinib; first compound 1 µM) of 0.355, a relative viability (Vemurafenib + Pictilisib; first compound 0.03162 µM) of 0.867 and a relative viability (Vemurafenib + Pictilisib; first compound 0.1 µM) of 0.801. For the same cell line, the relative viability (Vemurafenib + Pictilisib; first compound 0.3162 µM) was 0.714, the relative viability (Vemurafenib + Pictilisib; first compound 1 µM) was 0.348 and the relative viability (Vemurafenib + OSI-027; first compound 0.03162 µM) was 0.541. For the same cell line, the relative viability (Vemurafenib + OSI-027; first compound 0.1 µM) was 0.519, the relative viability (Vemurafenib + OSI-027; first compound 0.3162 µM) was 0.411 and the relative viability (Vemurafenib + OSI-027; first compound 1 µM) was 0.44. For the same cell line, the relative viability (Vemurafenib + Foretinib; first compound 0.03162 µM) was 1.02, the relative viability (Vemurafenib + Foretinib; first compound 0.1 µM) was 1 and the relative viability (Vemurafenib + Foretinib; first compound 0.3162 µM) was 1.15. It also gave a relative viability (Vemurafenib + Foretinib; first compound 1 µM) of 0.923, a relative viability (Vemurafenib + Vorinostat; first compound 0.03162 µM) of 0.383 and a relative viability (Vemurafenib + Vorinostat; first compound 0.1 µM) of 0.439. The relative viability (Vemurafenib + Vorinostat; first compound 0.3162 µM) was 0.576 and the relative viability (Vemurafenib + Vorinostat; first compound 1 µM) was 0.37.
